# Reference: patent publication US11370847B2, “Single domain antibodies directed against intracellular antigens” (Singh Biotechnology, LLC, priority 2014, dated 2022)
# Several values for one entry are separate records, joined by “and”; a condition that tells them apart may be missing. Equal values may be shown once. Read-outs that look alike come from different tables or passages of the source.
# Columns and labels:
# MDA-MB-231 xenograft = conditions: for Individual Tumor Measurements: listed as anti-STAT3 bacterial VHH13
# U87MG cells = assay: MTT proliferation assay, U87MG; format: cell-based, human; conditions: for % Inhibition (growth): U87mg cells treated for 72 hr.
# MDA-MB-231 cells = assay: MTT proliferation assay, MDA-MB-231; format: cell-based, human; conditions: MDA-MB-231; for Absorbance: single experiments;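 on all read-outs here: proliferation of cultured human cancer cells read by MTT, with treated groups compared against a vehicle control group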
# [1] = Group 3, 2 mg/kg IP BID×14, day 36 (7/9/15)
# [2] = Group 3, 2 mg/kg IP BID×14, day 42 (7/15/15)
# [3] = Group 4, 2 mg/kg IP QD×14, day 20 (6/23/15)
# [4] = Group 4, 2 mg/kg IP QD×14, day 23 (6/26/15)
# [5] = Group 4, 2 mg/kg IP QD×14, day 26 (6/29/15)
# [6] = Group 4, 2 mg/kg IP QD×14, day 29 (7/2/15)
# [7] = Group 4, 2 mg/kg IP QD×14, day 33 (7/6/15)
# [8] = Group 4, 2 mg/kg IP QD×14, day 36 (7/9/15)
# [9] = Group 4, 2 mg/kg IP QD×14, day 42 (7/15/15)
substance,measurement,setting,value
"anti-STAT3 VHH13: anti-STAT3 single-domain antibody, SEQ ID NO:3; bacterially produced, referred to as SBT-100",% Inhibition Median,MDA-MB-231 xenograft; [1],71.22%
same,Tumor Mean Absolute,MDA-MB-231 xenograft; [1],59.21 mm^3
same,Tumor Median Absolute,MDA-MB-231 xenograft; [1],64.51 mm^3
same,Individual Tumor Measurements,MDA-MB-231 xenograft; [1],50.33 mm^3 and 89.11 mm^3 and 78.68 mm^3 and 18.71 mm^3
same,% Inhibition Mean,MDA-MB-231 xenograft; [2],83.89%
same,% Inhibition Median,MDA-MB-231 xenograft; [2],85.17%
same,Tumor Mean Absolute,MDA-MB-231 xenograft; [2],41.15 mm^3
same,Tumor Median Absolute,MDA-MB-231 xenograft; [2],35.89 mm^3
same,Individual Tumor Measurements,MDA-MB-231 xenograft; [2],18.94 mm^3 and 73.89 mm^3 and 51.30 mm^3 and 20.48 mm^3
same,growth delay,MDA-MB-231 xenograft; Group 3: 2 mg/kg bw IP BID×14,9.52 days
same,mean growth inhibition,MDA-MB-231 xenograft; Group 3: 2 mg/kg bw IP BID×14,75.2
same,mean tumor size (±S.E.) at termination (day 42),MDA-MB-231 xenograft; Group 3: 2 mg/kg bw IP BID×14,41.15±13.21
same,mean tumor size (±SE) at day 14 of dosing,MDA-MB-231 xenograft; Group 3: 2 mg/kg bw IP BID×14,58.27±22.54
same,% treatment/control,"MDA-MB-231 xenograft; Group 3: 2 mg/kg bw IP BID×14, (tumor regression)",−54.4%
same,tumor doubling time,"MDA-MB-231 xenograft; Group 3: 2 mg/kg bw IP BID×14, control 20.56 days",30.07 days
same,% Inhibition Mean,MDA-MB-231 xenograft; [3],−14.18%
same,% Inhibition Median,MDA-MB-231 xenograft; [3],−1.80%
same,Tumor Mean Absolute,MDA-MB-231 xenograft; [3],105.60 mm^3
same,Tumor Median Absolute,MDA-MB-231 xenograft; [3],100.88 mm^3
same,Individual Tumor Measurements,MDA-MB-231 xenograft; [3],88.56 mm^3 and 78.73 mm^3 and 113.20 mm^3 and 141.91 mm^3
same,% Inhibition Mean,MDA-MB-231 xenograft; [4],32.37%
same,% Inhibition Median,MDA-MB-231 xenograft; [4],16.23%
same,Tumor Mean Absolute,MDA-MB-231 xenograft; [4],93.99 mm^3
same,Tumor Median Absolute,MDA-MB-231 xenograft; [4],96.82 mm^3
same,Individual Tumor Measurements,MDA-MB-231 xenograft; [4],108.35 mm^3 and 51.51 mm^3 and 85.29 mm^3 and 130.82 mm^3
same,% Inhibition Mean,MDA-MB-231 xenograft; [5],54.06%
same,% Inhibition Median,MDA-MB-231 xenograft; [5],43.65%
same,Tumor Mean Absolute,MDA-MB-231 xenograft; [5],79.20 mm^3
same,Tumor Median Absolute,MDA-MB-231 xenograft; [5],78.40 mm^3
same,Individual Tumor Measurements,MDA-MB-231 xenograft; [5],105.80 mm^3 and 54.20 mm^3 and 69.30 mm^3 and 87.49 mm^3
same,% Inhibition Mean,MDA-MB-231 xenograft; [6],46.13%
same,% Inhibition Median,MDA-MB-231 xenograft; [6],38.19%
same,Tumor Mean Absolute,MDA-MB-231 xenograft; [6],105.54 mm^3
same,Tumor Median Absolute,MDA-MB-231 xenograft; [6],103.05 mm^3
same,Individual Tumor Measurements,MDA-MB-231 xenograft; [6],102.94 mm^3 and 70.39 mm^3 and 103.16 mm^3 and 145.68 mm^3
same,% Inhibition Mean,MDA-MB-231 xenograft; [7],40.66%
same,% Inhibition Median,MDA-MB-231 xenograft; [7],36.92%
same,Tumor Mean Absolute,MDA-MB-231 xenograft; [7],131.44 mm^3
same,Tumor Median Absolute,MDA-MB-231 xenograft; [7],129.05 mm^3
same,Individual Tumor Measurements,MDA-MB-231 xenograft; [7],183.39 mm^3 and 84.29 mm^3 and 103.20 mm^3 and 154.89 mm^3
same,% Inhibition Mean,MDA-MB-231 xenograft; [8],55.94%
same,% Inhibition Median,MDA-MB-231 xenograft; [8],54.32%
same,Tumor Mean Absolute,MDA-MB-231 xenograft; [8],105.10 mm^3
same,Tumor Median Absolute,MDA-MB-231 xenograft; [8],102.39 mm^3
same,Individual Tumor Measurements,MDA-MB-231 xenograft; [8],159.78 mm^3 and 55.83 mm^3 and 87.15 mm^3 and 117.63 mm^3
same,% Inhibition Mean,MDA-MB-231 xenograft; [9],43.03%
same,% Inhibition Median,MDA-MB-231 xenograft; [9],48.55%
same,Tumor Mean Absolute,MDA-MB-231 xenograft; [9],145.51 mm^3
same,Tumor Median Absolute,MDA-MB-231 xenograft; [9],124.47 mm^3
same,Individual Tumor Measurements,MDA-MB-231 xenograft; [9],291.06 mm^3 and 42.03 mm^3 and 130.64 mm^3 and 118.31 mm^3
same,growth delay,MDA-MB-231 xenograft; Group 4: 2 mg/kg bw IP QD×14,6.61 days
same,mean growth inhibition,MDA-MB-231 xenograft; Group 4: 2 mg/kg bw IP QD×14,55.9
same,mean tumor size (±S.E.) at termination (day 42),MDA-MB-231 xenograft; Group 4: 2 mg/kg bw IP QD×14,145.51±52.32
same,mean tumor size (±SE) at day 14 of dosing,MDA-MB-231 xenograft; Group 4: 2 mg/kg bw IP QD×14,131.44±22.86
same,% treatment/control,"MDA-MB-231 xenograft; Group 4: 2 mg/kg bw IP QD×14, (tumor inhibition)",10.28%
same,tumor doubling time,"MDA-MB-231 xenograft; Group 4: 2 mg/kg bw IP QD×14, control 20.56 days",27.17 days
same,mean tumor size (±S.E.) at termination (day 28),MDA-MB-231 xenograft; SBT-100 5 mg/kg bw i.p. BID×14,91.72±33.17
same,mean tumor size (±SE) at last day of dosing (Day 14),MDA-MB-231 xenograft; SBT-100 5 mg/kg bw i.p. BID×14,83.81±22.65
same,% treatment/control,"MDA-MB-231 xenograft; SBT-100 5 mg/kg bw i.p. BID×14, (tumor inhibition)",13.35%
same,tumor doubling time,"MDA-MB-231 xenograft; SBT-100 5 mg/kg bw i.p. BID×14, control […] days",111.6 days
same,mean tumor growth inhibition at the end of the study,"MDA-MB-231 xenograft; SBT-100 5 mg/kg bw i.p. BID×14, p=0.006",85.8%
same,% Inhibition (growth),U87MG cells; Dose 50 μg/ml,18%
same,% Inhibition (growth),U87MG cells; Dose 100 μg/ml,51%
same,% Inhibition (growth),U87MG cells; Dose 200 μg/ml,62%
same,IC50,"U87MG cells; U87mg, 72 hr",IC50 = 65 μg/ml
same,% Inhibition,"U87MG cells; U87mg, SBT-100 50 μg/ml, 72 hr",18%
same,% Inhibition,"U87MG cells; U87mg, SBT-100 100 μg/ml, 72 hr",51%
same,% Inhibition,"U87MG cells; U87mg, SBT-100 200 μg/ml, 72 hr",62%
same,Average Absorbance,MDA-MB-231 cells; 50 μg,0.82
same,Average % Inhibition,"MDA-MB-231 cells; 50 μg (50.0 μg/ml), listed as Anti-STAT3 Bacterial VHH13",32.6%
same,Absorbance,"MDA-MB-231 cells; 50 μg, listed as Anti-STAT3 Bacterial VHH13",0.82 and 0.99 and 0.64
same,Average Absorbance,MDA-MB-231 cells; 100 μg,0.11
same,Absorbance,"MDA-MB-231 cells; 100 μg, listed as Anti-STAT3 Bacterial VHH13",0.07 and 0.12 and 0.14
